From patent US6451330B1, “High skin friction cosmetic creams with retinoids” (Unilever Home & Personal Care, USA, division of Conopco, …, priority 2000, dated 2002)

Assay: Retinoid solubility in oil
Format: physicochemical
Procedure: Retinoid solubility in oil is determined by the following procedure. A known weight of pure retinoid in excess of the expected solubility limit in the oil is added in an oil and methanol is added to the mixture to dissolve all retinoid crystals. Nitrogen sparging is used to ensure all methanol has evaporated from the oil. Retinoid is allowed to recrystallize overnight. The sample is filtered through a 0.45 micron filter. Known dilutions of the filtrate in isopropanol are measured by UV spectroscopy at an appropriate wavelength (325 nm for retinol) and the concentration of retinoid determined against calibration standards of retinoid in isopropanol.

SOLUBILITY, WT % (retinol crystals in C12-15 Alkyl benzoate): 85 WT %
SOLUBILITY, WT % (retinol crystals in Cetiol OE): 45 WT %
SOLUBILITY, WT % (retinol crystals in Cyclomethicone): 2.7 WT %
SOLUBILITY, WT % (retinol crystals in Dimethicone): 0.49 WT %
SOLUBILITY, WT % (retinol crystals in Isostearyl palmitate): 44 WT %
SOLUBILITY, WT % (retinol crystals in Mineral oil): 34.2 WT %
SOLUBILITY, WT % (retinol crystals in Triolein/Squalene (6:1)): 56.4 WT %
SMILES: CC1=C(/C=C/C(C)=C/C=C/C(C)=C/CO)C(C)(C)CCC1 [retinol]
